# Test results from US20180200257A1, “METHODS FOR THE TREATMENT OF INFLAMMATORY DISORDERS” (Galapagos NV, priority 2015, published 2018).
# Test system: subjects with moderately to severely active RA who have an inadequate response to methotrexate (MTX)
# Experiment: Study 2 (monotherapy) - Creatinine levels
# Format: in vivo, human
# From the text: Randomized, double-blind, placebo-controlled, multicenter, phase IIb dose finding study of Compound 1 (dosed as a [Compound 1:HCl:3H2O]) administered for 24 weeks as monotherapy to subjects with moderately to severely active rheumatoid arthritis who have an inadequate response to methotrexate alone
# Double-blind, placebo-controlled, monotherapy study in subjects with moderately to severely active RA who have an inadequate response to methotrexate (MTX) (oral or parenteral).
# 280 subjects randomized to one of 3 doses of Compound 1 (dosed as a [Compound 1:HCl:3H2O]) or to placebo, given once daily (q.d.).
# Twelve weeks of treatment with Compound 1 (dosed as a [Compound 1:HCl:3H2O]) at 50 mg, 100 mg, or 200 mg q.d.; or placebo. At Week 12, all subjects on placebo and the subjects on the 50 mg dose who have not achieved 20% improvement in swollen joint count (SJC66) and tender joint count (TJC68) will be assigned to 100 mg q.d. in a blinded fashion and will continue treatment until Week 24. Subjects in the other groups will maintain their randomized treatment until Week 24.
# Creatinine levels determination is available at Quest Diagnostics, Clinical Trials, Quest House, 125-135 Staines Road, Hounslow, Middlesex, TW3 3JB, United Kingdom under Catalogue n# 82565. For Study 3, the data are obtained at BARC Europe, 3B,Industrie Park, Zwijnaarde, B-9052 Ghent, Belgium.
# The Enzymatic method is based on the determination of sarcosine after conversion of creatinine with the aid of creatininase, creatinase, and sarcosine oxidase. The liberated hydrogen peroxide reacts with 4-aminophenazone and HTIB to form a quinone imine chromogen. The reaction is catalyzed by peroxidase. The color intensity is directly proportional to concentration of creatinine present and can be measured photometrically.
# Subjects in the other groups maintained their randomized treatment until Week 24.
# [1] = 50 mg q.d. non responders switching to 100 mg q.d. at week 12 (N = 15), week 0
# [2] = 50 mg q.d. non responders switching to 100 mg q.d. at week 12 (N = 15), week 1
# [3] = 50 mg q.d. non responders switching to 100 mg q.d. at week 12 (N = 15), week 2
# [4] = 50 mg q.d. non responders switching to 100 mg q.d. at week 12 (N = 15), week 4
# [5] = 50 mg q.d. non responders switching to 100 mg q.d. at week 12 (N = 15), week 8
# [6] = 50 mg q.d. non responders switching to 100 mg q.d. at week 12 (N = 15), week 12
# [7] = 50 mg q.d. non responders switching to 100 mg q.d. at week 12 (N = 15), week 16
# [8] = 50 mg q.d. non responders switching to 100 mg q.d. at week 12 (N = 15), week 20
# [9] = 50 mg q.d. non responders switching to 100 mg q.d. at week 12 (N = 15), week 24
# [10] = 50 mg q.d. responders (N = 57), week 0
# [11] = 50 mg q.d. responders (N = 57), week 1
# [12] = 50 mg q.d. responders (N = 57), week 2
# [13] = 50 mg q.d. responders (N = 57), week 4
# [14] = 50 mg q.d. responders (N = 57), week 8
# [15] = 50 mg q.d. responders (N = 57), week 12
# [16] = 50 mg q.d. responders (N = 57), week 16
# [17] = 50 mg q.d. responders (N = 57), week 20
# [18] = 50 mg q.d. responders (N = 57), week 24
# [19] = 100 mg q.d. (N = 70), 24 weeks results, week 0
# [20] = 100 mg q.d. (N = 70), 24 weeks results, week 1
# [21] = 100 mg q.d. (N = 70), 24 weeks results, week 2
# [22] = 100 mg q.d. (N = 70), 24 weeks results, week 4
smiles,measurement,setting,value
"O=C(Nc1nc2cccc(-c3ccc(CN4CCS(=O)(=O)CC4)cc3)n2n1)C1CC1 [Compound 1, cyclopropanecarboxylic acid {5-[4-(1,1-dioxo-thiomorpholin-4-ylmethyl)-phenyl]-[1,2,4]triazolo[1,5-a]pyridin-2-yl}-amide]",Creatinine Mean CFB,"50 mg q.d. (N = 72), week 0",0.00 µmol/L
same,Creatinine Mean percentage CFB,"50 mg q.d. (N = 72), week 0",0.00%
same,Creatinine Mean CFB,"50 mg q.d. (N = 72), week 1",0.42 µmol/L
same,Creatinine Mean percentage CFB,"50 mg q.d. (N = 72), week 1",1.10%
same,Creatinine Mean CFB,"50 mg q.d. (N = 72), week 2",1.25 µmol/L
same,Creatinine Mean percentage CFB,"50 mg q.d. (N = 72), week 2",2.59%
same,Creatinine Mean CFB,"50 mg q.d. (N = 72), week 4",1.32 µmol/L
same,Creatinine Mean percentage CFB,"50 mg q.d. (N = 72), week 4",3.01%
same,Creatinine Mean CFB,"50 mg q.d. (N = 72), week 8",2.20 µmol/L
same,Creatinine Mean percentage CFB,"50 mg q.d. (N = 72), week 8",4.34%
same,Creatinine Mean CFB,"50 mg q.d. (N = 72), week 12",3.16 µmol/L
same,Creatinine Mean percentage CFB,"50 mg q.d. (N = 72), week 12",6.02%
same,Creatinine Mean CFB,[1],0.0 µmol/L
same,Creatinine Mean percentage CFB,[1],0.00%
same,Creatinine Mean CFB,[2],1.1 µmol/L
same,Creatinine Mean percentage CFB,[2],2.03%
same,Creatinine Mean CFB,[3],2.0 µmol/L
same,Creatinine Mean percentage CFB,[3],3.77%
same,Creatinine Mean CFB,[4],0.6 µmol/L
same,Creatinine Mean percentage CFB,[4],1.58%
same,Creatinine Mean CFB,[5],6.2 µmol/L
same,Creatinine Mean percentage CFB,[5],10.36%
same,Creatinine Mean CFB,[6],0.0 µmol/L
same,Creatinine Mean percentage CFB,[6],0.74%
same,Creatinine Mean CFB,[7],5.9 µmol/L
same,Creatinine Mean percentage CFB,[7],11.14%
same,Creatinine Mean CFB,[8],4.5 µmol/L
same,Creatinine Mean percentage CFB,[8],8.07%
same,Creatinine Mean CFB,[9],5.2 µmol/L
same,Creatinine Mean percentage CFB,[9],9.28%
same,Creatinine Mean CFB,[10],0.0 µmol/L
same,Creatinine Mean percentage CFB,[10],0.00%
same,Creatinine Mean CFB,[11],0.2 µmol/L
same,Creatinine Mean percentage CFB,[11],0.86%
same,Creatinine Mean CFB,[12],1.0 µmol/L
same,Creatinine Mean percentage CFB,[12],2.27%
same,Creatinine Mean CFB,[13],1.5 µmol/L
same,Creatinine Mean percentage CFB,[13],3.40%
same,Creatinine Mean CFB,[14],1.1 µmol/L
same,Creatinine Mean percentage CFB,[14],2.67%
same,Creatinine Mean CFB,[15],4.0 µmol/L
same,Creatinine Mean percentage CFB,[15],7.51%
same,Creatinine Mean CFB,[16],1.9 µmol/L
same,Creatinine Mean percentage CFB,[16],3.91%
same,Creatinine Mean CFB,[17],3.6 µmol/L
same,Creatinine Mean percentage CFB,[17],7.19%
same,Creatinine Mean CFB,[18],1.6 µmol/L
same,Creatinine Mean percentage CFB,[18],3.16%
same,Creatinine Mean CFB,[19],0.0 µmol/L
same,Creatinine Mean percentage CFB,[19],0.00%
same,Creatinine Mean CFB,[20],1.2 µmol/L
same,Creatinine Mean percentage CFB,[20],3.00%
same,Creatinine Mean CFB,[21],1.5 µmol/L
same,Creatinine Mean percentage CFB,[21],3.21%
same,Creatinine Mean CFB,[22],1.1 µmol/L
same,Creatinine Mean percentage CFB,[22],3.23%
same,Creatinine Mean CFB,"100 mg q.d. (N = 70), 24 weeks results, week 8",3.2 µmol/L
